Experimental data as given in ChEMBL document CHEMBL1128726, “N-substituted oxazolo[5,4-b]pyridin-2(1H)-ones: a new class of non-opiate antinociceptive agents” (J Med Chem, 1995).
The source made the active and inactive calls.

Experiments:
[1] = system: Mus musculus; test: Inhibition of phenylquinone induced writhing in mice following 50 mg/kg p.o.; type: functional; details: route oral
[2] = species: Mus musculus; test: Analgesic activity against phenylquinone induced writhing in mice compared to that of aspirin.; type: functional
[3] = species: Rattus norvegicus; test: Analgesic activity against acetic acid-induced writhing in the rat compared to that of aspirin.; type: functional
[4] = system: Rattus norvegicus; test: Inhibition of acetic acid induced writhing in rat following 50 mg/kg p.o.; type: functional; details: route oral
[5] = system: Rattus norvegicus; test: Antiinflammatory activity was evaluated by carrageenan induced rat paw edema (6 rats/ dose) at peroral dose of 50 mg/kg by inhibition of Prostaglandin E2 (PGE2).; type: functional; details: route oral
[6] = system: Rattus norvegicus; test: Antiinflammatory activity was evaluated by carrageenan induced rat paw edema volume was determined.; type: functional
[7] = species: Mus musculus; test: Antinociceptive potency against phenylquinone (PBQ)-induced writhing in mice (8 mice/dose); type: functional
[8] = system: Mus musculus; test: Mortality threshold doses was determined from orientative acute toxicity Irwin test (3 mice/dose) by peroral administration; type: organism-based; details: in vivo, po
[9] = system: Rattus norvegicus; test: Antiinflammatory activity was evaluated by carrageenan induced rat paw edema (6 rats/ dose) at peroral dose of 50 mg/kg by inhibition of leukotriene B4 (LTB4) synthesis.; type: functional; details: route oral
[10] = system: Mus musculus; test: Analgesic activity was evaluated in mice by hot plate assay and percent change in foot licking latency was determined at 8 mg/kg i.p. dose; type: functional; details: route intraperitoneal
[11] = species: Rattus norvegicus; test: Antinociceptive potency against acetic acid -induced writhing in rat (8 rats/dose); type: functional
[12] = system: Rattus norvegicus; test: Antiinflammatory activity was evaluated by carrageenan induced rat paw edema (6 rats/ dose) at peroral dose of 100 mg/kg by inhibition of leukotriene B4 (LTB4) synthesis.; type: functional; details: route oral
[13] = system: Mus musculus; test: Analgesic activity was evaluated in mice by hot plate assay and percent change in foot licking latency was determined at 32 mg/kg i.p. dose. p<0.05; type: functional; details: route intraperitoneal
[14] = system: Rattus norvegicus; test: Antiinflammatory activity was evaluated by carrageenan induced rat paw edema (6 rats/ dose) at peroral dose of 100 mg/kg by inhibition of Prostaglandin E2 (PGE2).; type: functional; details: route oral
[15] = system: Rattus norvegicus; test: % inhibition of acetic acid-induced writhing in rat at 30 mg/kg peroral dose, 15 min postdose(5 rats per compound at each time); type: functional; details: 0.25 h, route oral
[16] = system: Rattus norvegicus; test: % inhibition of acetic acid-induced writhing in rat at 30 mg/kg peroral dose, 120 min postdose(5 rats per compound at each time); type: functional; details: 2 h, route oral
[17] = system: Rattus norvegicus; test: % inhibition of acetic acid-induced writhing in rat at 30 mg/kg peroral dose, 60 min postdose(5 rats per compound at each time); type: functional; details: 1 h, route oral
[18] = system: Rattus norvegicus; test: % inhibition of acetic acid-induced writhing in rat at 30 mg/kg peroral dose, 180 min postdose(5 rats per compound at each time); type: functional; details: 3 h, route oral
[19] = system: Rattus norvegicus; test: % inhibition of acetic acid-induced writhing in rat at 30 mg/kg peroral dose, 360 min postdose(5 rats per compound at each time); type: functional; details: 6 h, route oral
[20] = system: Rattus norvegicus; test: % inhibition of acetic acid-induced writhing in rat at 30 mg/kg peroral dose, 30 min postdose(5 rats per compound at each time); type: functional; details: 0.5 h, route oral
[21] = system: Mus musculus; test: Analgesic activity was evaluated in mice (10 mice/dose)by tail clip assay and expressed as number of protected animals upon total. Total tested was determined at 5 mg/kg p.o. dose; 5/10; type: functional, organism-based; set-up: dose 5 mg/kg
[22] = system: Mus musculus; test: Analgesic activity was evaluated in mice by hot plate assay and percent change in foot licking latency was determined at 16 mg/kg i.p. dose; type: functional; details: route intraperitoneal

Structure (SMILES)	inhibition in vivo at 50 mg/kg [1] [%]	Activity ratio [2]	Activity ratio [3]	inhibition in vivo at 50 mg/kg [4] [%]	ED50 [7] [mg/kg]	ED50 [11] [mg/kg]	other results
O=c1oc2ncccc2n1CCN1CCN(c2cccc3ccccc23)CC1	33	0.7	0.1	6			
O=c1oc2ncccc2n1CCCCN1CCN(c2ccc(F)cc2)CC1	100	1.9	2.2	87	2.9	0.5	inhibition in vivo at 50 mg/kg [5]: 2%; Variation of edema volume [6]: -25%; Mortality threshold [8]: 512 mg/kg; inhibition in vivo at 50 mg/kg [9]: 0%; Change in foot-licking latency [10]: 113%
COc1ccccc1N1CCN(CCn2c(=O)oc3ncccc32)CC1	52	0.8	0.8	53			
O=c1oc2ncccc2n1CCCN1CCN(c2ccccc2)CC1	98	1.4	1.3	92	12.7	3.3	Change in volume [6]: -20%; inhibition in vivo at 100 mg/kg [12]: 35%; Mortality threshold [8]: > 1024 mg/kg; Change in foot-licking latency [13]: 30%; inhibition in vivo at 100 mg/kg [14]: 5%
O=c1oc2ncccc2n1CCN1CCN(c2ccccc2)CC1				74	25	13.6	
O=c1oc2ncccc2n1CCCN1CCOCC1	48	0.9	0	0			
CC(=O)Oc1ccccc1C(=O)O [ASPIRIN]					63	32	inhibition in vivo at 30 mg/kg [15]: 53%; inhibition in vivo at 30 mg/kg [16]: 26%; inhibition in vivo at 30 mg/kg [17]: 60%; inhibition in vivo at 30 mg/kg [18]: 18%; inhibition in vivo at 30 mg/kg [19]: 0%; inhibition in vivo at 30 mg/kg [20]: 37%
O=c1oc2ncccc2n1CCCN1CCN(c2cccc3ccccc23)CC1	44	0.9	0	0			
O=c1oc2ncccc2n1CCN1CCN(c2ccc(F)cc2)CC1	83	1.2	1.2	85	6.7	3.6	
CN1CC[C@]23c4c5ccc(O)c4O[C@H]2[C@@H](O)C=C[C@H]3[C@H]1C5.CN1CC[C@]23c4c5ccc(O)c4O[C@H]2[C@@H](O)C=C[C@H]3[C@H]1C5.O=S(=O)(O)O							No. of protected animals/total [21]: Partially active; Change in foot-licking latency [22]: 283%
CC(CCn1c(=O)oc2ncccc21)N1CCN(c2ccc(F)cc2)CC1 (centres undefined)	63	1.3	0.7	51			
O=c1oc2ncccc2n1CCN1CCN(c2cccc(C(F)(F)F)c2)CC1	10	0.1	0.2	11			
O=c1oc2ncccc2n1CCCN1CCN(Cc2ccccc2)CC1	14	0.3	0.2	12			
